Biological target: human LPA1 (Homo sapiens, UniProt Q92633)
Assay: In vitro functional assay of lysophosphatidic acid receptor 1 activity (calcium flux)
Type: cell-based
Details: B103 cells stably expressing human LPA1; Fluo-4 NW calcium flux after lysophosphatidic acid (18:1) at EC80; compounds 100 pM to 10 μM; read-out: LPA1 IC50
Outline: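 B103 cells stably expressing human LPA1 plated onto compound for 24 h at 37 °C, loaded with Fluo-4 NW dye, re-exposed to compound (30 min 37 °C plus 30 min room temp).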

Chain of human LPA1 (Q92633 whole entry): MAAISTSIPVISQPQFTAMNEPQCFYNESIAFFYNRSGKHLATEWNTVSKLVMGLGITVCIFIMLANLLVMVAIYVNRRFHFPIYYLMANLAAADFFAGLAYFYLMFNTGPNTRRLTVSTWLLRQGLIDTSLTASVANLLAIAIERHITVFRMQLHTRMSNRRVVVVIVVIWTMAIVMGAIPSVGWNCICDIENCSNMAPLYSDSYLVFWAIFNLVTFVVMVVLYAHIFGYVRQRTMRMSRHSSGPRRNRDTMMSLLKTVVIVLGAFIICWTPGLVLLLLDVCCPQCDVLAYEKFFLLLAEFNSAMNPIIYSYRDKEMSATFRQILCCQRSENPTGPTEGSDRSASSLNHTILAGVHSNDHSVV

| SMILES | IC50 [nM] |
| --- | --- |
| COc1ccc(NC(=O)C2(c3ccccc3C(C)C)CC(CC(=O)O)C2)c(OC(F)F)n1 (stereo not shown) [Example 46, 2-(3-((2-(difluoromethoxy)-6-methoxypyridin-3-yl)carbamoyl)-3-(2-isopropylphenyl)cyclobutyl)acetic acid] | < 10 |
| Cc1ccc(NC(=O)C2(c3ccccc3C(C)C)CC(O)(c3ccc(C#N)cn3)C2)c(OC(F)F)n1 (stereo not shown) [Example 50, 3-(5-cyanopyridin-2-yl)-N-(2-(difluoromethoxy)-6-methylpyridin-3-yl)-3-hydroxy-1-(2-isopropylphenyl)cyclobutane-1-carboxamide] | 10 to 100 |
| CC(=O)N(C)C1CC(C(=O)Nc2ccc(C)nc2OC(F)F)(c2ccccc2C(C)C)C1 (mixture of isomers) [Example 43, N-(2-(difluoromethoxy)-6-methylpyridin-3-yl)-1-(2-isopropylphenyl)-3-(N-methylacetamido)cyclobutane-1-carboxamide] | 10 to 100 |
| CC(C)c1ccccc1C1(C(=O)Nc2ncc(Cl)cc2OC(F)F)COC1 [Example 22, N-(5-chloro-3-(difluoromethoxy)pyridin-2-yl)-3-(2-isopropylphenyl)oxetane-3-carboxamide] | 10 to 100 |
| CC(C)c1ccccc1C1(C(=O)Nc2ccc(Cl)cc2OC(F)F)CCOCC1 [Example 14, N-(4-chloro-2-(difluoromethoxy)phenyl)-4-(2-isopropylphenyl)tetrahydro-2H-pyran-4-carboxamide] | 100 to 1000 |
| Cc1cc(OC(F)F)c(NC(=O)C2(c3ccccc3C(C)C)COC2)cn1 [Example 26, N-(4-(difluoromethoxy)-6-methylpyridin-3-yl)-3-(2-isopropylphenyl)oxetane-3-carboxamide] | 10 to 100 |
| COc1cc(Br)cnc1NC(=O)C1(c2ccccc2C(C)C)COC1 [Example 23, N-(5-bromo-3-methoxypyridin-2-yl)-3-(2-isopropylphenyl)oxetane-3-carboxamide] | 100 to 1000 |

Next, values leading:

| IC50 [nM] | SMILES |
| --- | --- |
| 10 to 100 | CC(C)c1ccccc1C1(C(=O)Nc2ccc(Cl)nc2OC(F)F)CNC(=O)C1 (stereo not shown) [Example 108, N-(6-chloro-2-(difluoromethoxy)pyridin-3-yl)-3-(2-isopropylphenyl)-5-oxopyrrolidine-3-carboxamide] |
| < 10 | Cc1ccc(NC(=O)C2(c3ccccc3C(C)C)CC(O)(C(F)(F)C(=O)O)C2)c(OC(F)F)n1 (mixture of isomers) [Example 53, 2-(3-((2-(difluoromethoxy)-6-methylpyridin-3-yl)carbamoyl)-1-hydroxy-3-(2-isopropylphenyl)cyclobutyl)-2,2-difluoroacetic acid] |
| > 1000 | COc1cc(C)ccc1NC(=O)C1(c2ccccc2C(C)C)CNC(=O)C1 (single isomer, unassigned) [Example 102-isomer B, 3-(2-isopropylphenyl)-N-(2-methoxy-4-methylphenyl)-5-oxopyrrolidine-3-carboxamide] |
| 100 to 1000 | Cc1cc(OC(F)F)c(NC(=O)C2(c3ccccc3C(C)C)CC(O)(C(F)(F)C(=O)O)C2)cn1 (single isomer, unassigned) [Example 94-isomer A, 2-(3-((4-(difluoromethoxy)-6-methylpyridin-3-yl)carbamoyl)-1-hydroxy-3-(2-isopropylphenyl)cyclobutyl)-2,2-difluoroacetic acid] |
| 10 to 100 | CC(C)c1ccccc1C1(C(=O)Nc2ncc(Cl)cc2OC(F)F)CC(O)(C(F)(F)C(=O)O)C1 (single isomer, unassigned) [Example 55-isomer B, 2-(3-((5-chloro-3-(difluoromethoxy)pyridin-2-yl)carbamoyl)-1-hydroxy-3-(2-isopropylphenyl)cyclobutyl)-2,2-difluoroacetic acid] |

Same assay, conditions: LPA1 IC50, B103 cells stably expressing human LPA1; Fluo-4 NW calcium flux after lysophosphatidic acid (18:1) at EC80; compounds 100 pM to 10 μM

| SMILES | IC50 [nM] |
| --- | --- |
| COc1ccc(NC(=O)C2(c3ccccc3C(C)C)CCNC(=O)C2)c(OC(F)F)n1 (stereo not shown) [Example 116, N-(2-(difluoromethoxy)-6-methoxypyridin-3-yl)-4-(2-isopropylphenyl)-2-oxopiperidine-4-carboxamide] | 100 to 1000 |

Source: patent US20250179045A1, “LPAR1 ANTAGONISTS AND USES THEREOF” (Contineum Therapeutics, Inc., priority 2021, published 2025)
